# Source: ChEMBL document CHEMBL3596129, “Osthol and curcumin as inhibitors of human Pgp and multidrug efflux pumps of Staphylococcus aureus: reversing the resistance against frontline antibacterial drugs” (Medchemcomm, 2014)
# Key:
# [1] = molecular target: T1, Quinolone resistance protein NorA (Staphylococcus aureus) (UniProt P0A0J7); assay: Inhibition of NorA overexpressed in Staphylococcus aureus SA1199B assessed as ciprofloxacin MIC at 25 uM after 24 hrs by broth checkerboard method (reference value: 8 ug/ml)
# T1 sequence (whole entry): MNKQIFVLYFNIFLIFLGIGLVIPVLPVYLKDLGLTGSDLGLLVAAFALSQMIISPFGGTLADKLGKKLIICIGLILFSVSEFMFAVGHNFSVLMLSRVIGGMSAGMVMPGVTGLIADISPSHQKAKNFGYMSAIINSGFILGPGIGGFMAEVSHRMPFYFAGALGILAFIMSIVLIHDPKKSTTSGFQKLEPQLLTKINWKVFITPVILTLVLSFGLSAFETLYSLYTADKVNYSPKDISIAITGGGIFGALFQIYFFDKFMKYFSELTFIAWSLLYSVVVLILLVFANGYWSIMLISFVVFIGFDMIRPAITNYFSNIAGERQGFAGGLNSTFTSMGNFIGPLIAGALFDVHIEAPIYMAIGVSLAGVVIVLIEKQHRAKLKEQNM
# [2] = molecular target: T2, ATP-dependent translocase ABCB1 (Homo sapiens, UniProt P08183); assay: Inhibition of P-gp in human LS180 cells after 90 mins by rhodamine123 cell exclusion method; type: cell-based
# [3] = molecular target: T3, Fluoroquinolone resistance protein (Staphylococcus aureus) (UniProt A0A0C5K5S3); assay: Inhibition of MdeA overexpressed in Staphylococcus aureus Mupr-1 assessed as decrease in mupirocin MIC at 25 uM after 24 hrs by broth checkerboard method relative to control
# T3 sequence (whole entry): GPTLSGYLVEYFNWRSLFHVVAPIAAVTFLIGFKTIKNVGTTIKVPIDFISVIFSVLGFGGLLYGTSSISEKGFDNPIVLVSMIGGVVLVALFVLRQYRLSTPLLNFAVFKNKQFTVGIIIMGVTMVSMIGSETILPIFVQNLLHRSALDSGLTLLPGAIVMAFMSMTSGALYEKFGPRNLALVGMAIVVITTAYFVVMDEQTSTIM
# [4] = molecular target: T1, Quinolone resistance protein NorA (Staphylococcus aureus); assay: Inhibition of NorA overexpressed in Staphylococcus aureus SA1199B assessed as decrease in ciprofloxacin MIC at 25 uM after 24 hrs by broth checkerboard method relative to control
# Staphylococcus aureus [5] = assay: Inhibition of MsrA overexpressed in Staphylococcus aureus K2191 assessed as decrease in erythromycin MIC at 25 uM after 24 hrs by broth checkerboard method relative to control
# Staphylococcus aureus [6] = assay: Inhibition of TetK overexpressed in Staphylococcus aureus K2192 assessed as decrease in tetracycline MIC at 25 uM after 24 hrs by broth checkerboard method relative to control
# Staphylococcus aureus [7] = assay: Inhibition of MsrA overexpressed in Staphylococcus aureus K2191 assessed as erythromycin MIC at 25 uM after 24 hrs by broth checkerboard method (reference value: 64 ug/ml)
# [8] = molecular target: T3, Fluoroquinolone resistance protein (Staphylococcus aureus); assay: Inhibition of MdeA overexpressed in Staphylococcus aureus Mupr-1 assessed as mupirocin MIC at 25 uM after 24 hrs by broth checkerboard method (reference value: 256 ug/ml)
# Staphylococcus aureus [9] = assay: Inhibition of TetK overexpressed in Staphylococcus aureus K2192 assessed as tetracycline MIC at 25 uM after 24 hrs by broth checkerboard method (reference value: 32 ug/ml)
# [10] = molecular target: T2, ATP-dependent translocase ABCB1; assay: Inhibition of P-gp in human LS180 cells at 50 uM after 90 mins by rhodamine123 cell exclusion method; type: cell-based; conditions: ls180, 1.5 h
# Staphylococcus aureus [11] = assay: Inhibition of MsrA overexpressed in Staphylococcus aureus K2191 assessed as decrease in erythromycin MIC at 50 uM after 24 hrs by broth checkerboard method relative to control
# Staphylococcus aureus [12] = assay: Inhibition of TetK overexpressed in Staphylococcus aureus K2192 assessed as decrease in tetracycline MIC at 50 uM after 24 hrs by broth checkerboard method relative to control
# [13] = molecular target: T3, Fluoroquinolone resistance protein (Staphylococcus aureus); assay: Inhibition of MdeA overexpressed in Staphylococcus aureus Mupr-1 assessed as decrease in mupirocin MIC at 50 uM after 24 hrs by broth checkerboard method relative to control
# [14] = molecular target: T1, Quinolone resistance protein NorA (Staphylococcus aureus); assay: Inhibition of NorA overexpressed in Staphylococcus aureus SA1199B assessed as ciprofloxacin MIC at 50 uM after 24 hrs by broth checkerboard method (reference value: 8 ug/ml)
# Staphylococcus aureus [15] = assay: Inhibition of MsrA overexpressed in Staphylococcus aureus K2191 assessed as erythromycin MIC at 50 uM after 24 hrs by broth checkerboard method (reference value: 64 ug/ml)
# [16] = molecular target: T3, Fluoroquinolone resistance protein (Staphylococcus aureus); assay: Inhibition of MdeA overexpressed in Staphylococcus aureus Mupr-1 assessed as mupirocin MIC at 50 uM after 24 hrs by broth checkerboard method (reference value: 256 ug/ml)
# [17] = molecular target: T1, Quinolone resistance protein NorA (Staphylococcus aureus); assay: Inhibition of NorA overexpressed in Staphylococcus aureus SA1199B assessed as decrease in ciprofloxacin MIC at 50 uM after 24 hrs by broth checkerboard method relative to control
# Staphylococcus aureus [18] = assay: Inhibition of TetK overexpressed in Staphylococcus aureus K2192 assessed as tetracycline MIC at 50 uM after 24 hrs by broth checkerboard method (reference value: 32 ug/ml)
# P-gp [19] = assay: Substrate activity at P-gp in human Caco2 cells assessed as efflux ratio of apparent permeability across basolateral to apical side over apical to basolateral side at 10 uM after 90 mins by HPLC with mass spectrometric method; type: ADME, cell-based; conditions: Caco-2
# P-gp [20] = assay: Substrate activity at P-gp in human Caco2 cells assessed as apparent permeability across basolateral to apical side at 10 uM after 90 mins by HPLC with mass spectrometric method; type: ADME, cell-based; conditions: Caco-2
# CYP3A4 = CYP3A4 (Homo sapiens, UniProt P08684); assay: Inhibition of human CYP3A4 at 10 uM preincubated for 10 mins with cofactor followed by mixture of enzyme-substrate addition by fluorescence assay relative to control; type: ADME
# Chain of CYP3A4 (P08684 whole entry): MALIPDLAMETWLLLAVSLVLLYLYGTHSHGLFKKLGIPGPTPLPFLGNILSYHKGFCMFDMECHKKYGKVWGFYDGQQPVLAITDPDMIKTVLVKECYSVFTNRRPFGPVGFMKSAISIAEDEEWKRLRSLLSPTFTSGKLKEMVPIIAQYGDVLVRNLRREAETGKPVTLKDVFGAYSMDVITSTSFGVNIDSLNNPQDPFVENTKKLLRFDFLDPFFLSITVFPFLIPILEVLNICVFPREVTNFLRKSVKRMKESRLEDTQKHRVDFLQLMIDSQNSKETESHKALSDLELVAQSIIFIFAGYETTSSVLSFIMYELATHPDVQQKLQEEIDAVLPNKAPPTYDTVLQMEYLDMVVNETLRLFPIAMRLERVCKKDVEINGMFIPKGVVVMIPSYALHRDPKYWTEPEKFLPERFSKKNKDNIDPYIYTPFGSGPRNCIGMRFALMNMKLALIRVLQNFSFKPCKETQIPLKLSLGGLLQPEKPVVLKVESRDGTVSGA
# CYP2D6 = CYP2D6 (Homo sapiens, UniProt P10635); assay: Inhibition of human CYP2D6 at 10 uM preincubated for 10 mins with cofactor followed by mixture of enzyme-substrate addition by fluorescence assay relative to control; type: ADME
# Chain of CYP2D6 (P10635 whole entry): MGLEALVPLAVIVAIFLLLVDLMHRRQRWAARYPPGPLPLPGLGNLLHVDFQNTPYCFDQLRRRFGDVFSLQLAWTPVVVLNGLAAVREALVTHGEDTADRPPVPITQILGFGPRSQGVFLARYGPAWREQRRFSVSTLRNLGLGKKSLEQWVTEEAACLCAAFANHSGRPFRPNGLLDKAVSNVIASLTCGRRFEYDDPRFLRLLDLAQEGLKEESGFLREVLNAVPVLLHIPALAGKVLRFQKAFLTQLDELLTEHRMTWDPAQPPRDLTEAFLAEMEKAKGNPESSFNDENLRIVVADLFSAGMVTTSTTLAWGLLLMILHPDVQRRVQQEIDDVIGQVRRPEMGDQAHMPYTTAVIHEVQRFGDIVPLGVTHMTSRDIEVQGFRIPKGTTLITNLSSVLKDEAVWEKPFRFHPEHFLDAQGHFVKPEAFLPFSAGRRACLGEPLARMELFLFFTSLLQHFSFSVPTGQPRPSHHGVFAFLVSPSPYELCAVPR
# CYP2C9 = CYP2C9 (Homo sapiens, UniProt P11712); assay: Inhibition of human CYP2C9 at 10 uM preincubated for 10 mins with cofactor followed by mixture of enzyme-substrate addition by fluorescence assay relative to control; type: ADME
# Chain of CYP2C9 (P11712 whole entry): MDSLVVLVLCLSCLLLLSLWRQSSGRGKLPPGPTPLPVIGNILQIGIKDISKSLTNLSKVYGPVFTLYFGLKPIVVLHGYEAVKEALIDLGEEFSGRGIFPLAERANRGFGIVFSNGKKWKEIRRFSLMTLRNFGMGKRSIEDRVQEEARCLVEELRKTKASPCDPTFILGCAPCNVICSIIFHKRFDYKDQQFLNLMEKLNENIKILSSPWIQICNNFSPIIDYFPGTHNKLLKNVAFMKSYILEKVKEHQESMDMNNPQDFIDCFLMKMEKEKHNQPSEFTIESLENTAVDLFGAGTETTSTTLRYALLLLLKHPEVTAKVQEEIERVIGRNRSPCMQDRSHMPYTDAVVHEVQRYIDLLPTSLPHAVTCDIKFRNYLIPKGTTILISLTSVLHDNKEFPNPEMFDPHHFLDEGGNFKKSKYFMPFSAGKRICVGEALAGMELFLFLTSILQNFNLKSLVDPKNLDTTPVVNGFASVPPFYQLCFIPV
# Staphylococcus aureus [21] = assay: Inhibition of TetK overexpressed in Staphylococcus aureus K2192 assessed as decrease in tetracycline MIC at 12.5 uM after 24 hrs by broth checkerboard method relative to control
# [22] = molecular target: T1, Quinolone resistance protein NorA (Staphylococcus aureus); assay: Inhibition of NorA overexpressed in Staphylococcus aureus SA1199B assessed as decrease in ciprofloxacin MIC at 12.5 uM after 24 hrs by broth checkerboard method relative to control
# [23] = molecular target: T1, Quinolone resistance protein NorA (Staphylococcus aureus); assay: Inhibition of NorA overexpressed in Staphylococcus aureus SA1199B assessed as ciprofloxacin MIC at 12.5 uM after 24 hrs by broth checkerboard method (reference value: 8 ug/ml)
# [24] = molecular target: T3, Fluoroquinolone resistance protein (Staphylococcus aureus); assay: Inhibition of MdeA overexpressed in Staphylococcus aureus Mupr-1 assessed as mupirocin MIC at 12.5 uM after 24 hrs by broth checkerboard method (reference value: 256 ug/ml)
# Staphylococcus aureus [25] = assay: Inhibition of MsrA overexpressed in Staphylococcus aureus K2191 assessed as erythromycin MIC at 12.5 uM after 24 hrs by broth checkerboard method (reference value: 64 ug/ml)
# Staphylococcus aureus [26] = assay: Inhibition of MsrA overexpressed in Staphylococcus aureus K2191 assessed as decrease in erythromycin MIC at 12.5 uM after 24 hrs by broth checkerboard method relative to control
# [27] = molecular target: T3, Fluoroquinolone resistance protein (Staphylococcus aureus); assay: Inhibition of MdeA overexpressed in Staphylococcus aureus Mupr-1 assessed as decrease in mupirocin MIC at 12.5 uM after 24 hrs by broth checkerboard method relative to control
# Staphylococcus aureus [28] = assay: Inhibition of TetK overexpressed in Staphylococcus aureus K2192 assessed as tetracycline MIC at 12.5 uM after 24 hrs by broth checkerboard method (reference value: 32 ug/ml)
Compound,MIC [1] [µg/mL],IC50 [2] [µM],fold change (FC) [3],fold change (FC) [4],fold change (FC) (Staphylococcus aureus [5]),fold change (FC) (Staphylococcus aureus [6]),MIC (Staphylococcus aureus [7]) [µg/mL],MIC [8] [µg/mL],MIC (Staphylococcus aureus [9]) [µg/mL],inhibition (INH) [10],also measured
C/C=C(\C)C(=O)OC1c2c(ccc3ccc(=O)oc23)OC(C)(C)C1OC(=O)/C(C)=C/C (stereo not given),4,16,0,2,0,0,64,256,32,Not Active,–
CC(=O)Oc1cc(OC(C)=O)c2ccc(=O)oc2c1CC=C(C)C,4,44,0,2,4,2,16,256,16,Not Active,–
CC(C)=CCc1c(O)cc(O)c2ccc(=O)oc12,4,–,0,2,0,0,64,256,32,Not Active,–
C=CC(C)(C)c1cc2cc3c(cc2oc1=O)OC(C)(C)C=C3,2,15,0,4,0,2,64,256,16,Not Active,–
CCC/C=C1\OC(=O)C2CC3CCC12C1(OC(=O)C2=C1CCCC2)C3CCC (stereo not given),–,–,–,–,–,–,–,–,–,Not Active,fold change (FC) (Staphylococcus aureus [11]): 0; fold change (FC) (Staphylococcus aureus [12]): 0; fold change (FC) [13]: 0; MIC [14]: 8 µg/mL; MIC (Staphylococcus aureus [15]): 64 µg/mL; MIC [16]: 256 µg/mL; fold change (FC) [17]: 0; MIC (Staphylococcus aureus [18]): 32 µg/mL
O=C(/C=C/C=C/c1ccc2c(c1)OCO2)N1CCCCC1,4,–,0,2,0,0,64,256,32,–,–
COc1cc(/C=C/C(=O)CC(=O)/C=C/c2ccc(O)c(OC)c2)ccc1O [CURCUMIN],1,62,0,8,0,0,64,256,32,Not Active,–
C[C@H]1O[C@@H](O[C@H]2[C@@H](O)C[C@H](O[C@H]3[C@@H](O)C[C@H](O[C@H]4CC[C@@]5(C)[C@H](CC[C@@H]6[C@@H]5C[C@@H](O)[C@]5(C)[C@@H](C7=CC(=O)OC7)CC[C@]65O)C4)O[C@@H]3C)O[C@@H]2C)C[C@H](O)[C@@H]1O [DIGOXIN],–,–,–,–,–,–,–,–,–,–,"efflux ratio at 1.5 h, 10 µM (P-gp [19]): 41.5; Papp B→A at 1.5 h, 10 µM (P-gp [20]): 12.4 ×10⁻⁶ cm/s"
CC(=O)N1CCN(c2ccc(OCC3COC(Cn4ccnc4)(c4ccc(Cl)cc4Cl)O3)cc2)CC1 (stereo not given) [KETOCONAZOLE],–,–,–,–,–,–,–,–,–,–,inhibition at 10 µM (CYP3A4): 95.2%
CC(C)=CCc1c(O)ccc2ccc(=O)oc12 [OSTHENOL],–,–,–,–,–,–,–,–,–,Not Active,fold change (FC) (Staphylococcus aureus [11]): 0; fold change (FC) (Staphylococcus aureus [12]): 0; fold change (FC) [13]: 0; MIC [14]: 2 µg/mL; MIC (Staphylococcus aureus [15]): 64 µg/mL; MIC [16]: 256 µg/mL; fold change (FC) [17]: 4; MIC (Staphylococcus aureus [18]): 32 µg/mL
Fc1ccc([C@@H]2CCNC[C@H]2COc2ccc3c(c2)OCO3)cc1 [PAROXETINE],–,–,–,–,–,–,–,–,–,–,inhibition at 10 µM (CYP2D6): 96.5%
CC(C)=CCOc1c2occc2cc2ccc(=O)oc12 [PENTOSALEN],4,28,2,2,0,0,64,128,32,Not Active,–
COc1c2ccoc2c(OCC=C(C)C)c2oc(=O)ccc12 [PHELLOPTERIN],4,32,0,2,2,0,32,256,32,Not Active,–
COc1c(C(=O)/C=C(\O)c2ccccc2)ccc2occc12 [PONGAMOL],4,88,0,2,0,0,64,256,32,Not Active,–
Nc1ccc(S(=O)(=O)Nc2ccnn2-c2ccccc2)cc1 [SULFAPHENAZOLE],–,–,–,–,–,–,–,–,–,–,inhibition at 10 µM (CYP2C9): 93.7%
COc1ccc(-c2cc(=O)c3c(OC)c(OC)c(OC)c(OC)c3o2)cc1 [TANGERETIN],–,–,–,2,–,–,–,–,–,Not Active,fold change (FC) (Staphylococcus aureus [21]): 0; fold change (FC) [22]: 2; MIC [23]: 4 µg/mL; MIC [24]: 128 µg/mL; MIC (Staphylococcus aureus [25]): 32 µg/mL; fold change (FC) (Staphylococcus aureus [26]): 2; fold change (FC) [27]: 2; MIC (Staphylococcus aureus [28]): 32 µg/mL
